In the supplement of paper PMC10307832:

Columns and labels:
Test in all cases: relative viability (nuclei count vs DMSO), 5 days (fraction); higher = more cells survive
[1] = compound: CC1=CC(=NN1)NC2=CC(=NC(=N2)/C=C/C3=CC=CC=C3)N4CCN(CC4)C
In short: (§1)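 Lung cancer cell lines in 1536-well plates were kept overnight at 37 °C, then pinned with five library-drug doses (not always all listed) spaced by √10 on vehicle-anchored plates. After 5 days without medium change, cells were fixed, permeabilised and Hoechst-stained in one step, imaged at 4×, and nuclei were counted with MetaXpress. Viability is treated-well nuclei divided by vehicle-well nuclei, taken as the median over plates. Plates passed only with control CV below 25% and at least one doubling.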

[2] = compound: COC1=CC(c2cc3ccccc3[nH]2)=N/C1=C\c1[nH]c(C)cc1C [Obatoclax]
In short: as §1

[3] = compound: CC(C)C[C@H](NC(=O)[C@H](Cc1ccccc1)NC(=O)c1cnccn1)B(O)O [Bortezomib]
In short: as §1

| Cell Line | relative viability ([1]; 0.08 µM) | relative viability ([1]; 0.253 µM) | relative viability ([1]; 0.8 µM) | relative viability ([1]; 2.53 µM) | relative viability ([1]; 8 µM) | relative viability ([2]; 0.01 µM) | relative viability ([2]; 0.03162 µM) | relative viability ([2]; 0.1 µM) | relative viability ([2]; 0.3162 µM) | relative viability ([2]; 1 µM) | relative viability ([3]; 0.0002 µM) | relative viability ([3]; 0.000632 µM) | relative viability ([3]; 0.002 µM) | relative viability ([3]; 0.002 µM, anchor plate) | relative viability ([3]; 0.006325 µM) | relative viability ([3]; 0.02 µM) |
| --- | --- | --- | --- | --- | --- | --- | --- | --- | --- | --- | --- | --- | --- | --- | --- | --- |
| NCI-H2009 | 0.995 | 0.95 | 0.997 | 0.646 | 0.243 | 0.958 | 1.02 | 0.85 | 0.626 | 0.301 | 1.01 | 0.977 | 1.07 | 0.971 | 0.0869 | 0.0749 |
| NCI-H2023 | 1.01 | 1.02 | 0.859 | 0.108 | 0.0691 | 0.928 | 0.969 | 0.946 | 0.774 | 0.229 | 1.02 | 0.9 | 1 | 1.01 | 0.139 | 0.0632 |
| NCI-H2085 | 1.04 | 1.05 | 0.95 | 0.695 | 0.323 | 0.962 | 0.975 | 0.9 | 0.943 | 0.56 | 0.979 | 0.978 | 0.993 | 1.07 | 0.617 | 0.23 |
| NCI-H2087 | 0.959 | 0.761 | 1.09 | 0.277 | 0.13 | 1.01 | 1.14 | 0.8 | 0.876 | 0.298 | 0.9 | 1.08 | 0.726 | 0.79 | 0.0629 | 0.0618 |
| NCI-H2126 | 0.993 | 1.04 | 0.961 | 0.875 | 0.41 | 1.03 | 0.959 | 0.931 | 0.989 | 0.918 | 0.968 | 1.02 | 1.03 | 1.1 | 0.924 | 0.749 |
| NCI-H2170 | 0.971 | 1.04 | 0.868 | 0.77 | 0.266 | 0.942 | 0.979 | 1.01 | 0.961 | 0.977 | 0.96 | 0.824 | 1.07 |  | 0.815 | 0.177 |
| NCI-H2228 | 0.846 | 1.18 | 0.782 | 0.179 | 0.0666 | 0.951 | 0.922 | 1.01 | 0.791 | 0.595 | 0.929 | 0.974 | 0.638 | 1.06 | 0.103 | 0.123 |
| NCI-H2342 | 0.913 | 0.938 | 1.1 | 0.916 | 0.366 | 1.02 | 1.08 | 1.06 | 0.857 | 0.954 | 1.1 | 0.948 | 1.02 |  | 1.03 | 0.748 |
| NCI-H2347 | 0.966 | 1.11 | 1.1 | 0.891 | 0.525 | 0.999 | 0.946 | 0.843 | 0.946 | 0.926 | 1 | 0.936 | 1.03 | 1.08 | 0.615 | 0.339 |
| NCI-H2405 | 0.979 | 0.889 | 1.06 | 0.458 | 0.201 | 1.07 | 0.997 |  | 1.01 | 1.07 | 0.96 | 0.907 | 0.988 | 0.939 | 0.293 | 0.18 |
| NCI-H3122 | 1.01 | 0.857 | 0.982 | 0.956 | 0.308 | 0.985 | 0.931 | 0.927 | 0.984 | 1.01 | 1 | 0.957 | 1.07 | 1 | 0.825 | 0.149 |
| PC-3 [JPC-3] | 1.03 | 1.07 | 1.09 | 1.04 | 0.726 | 1.02 | 1.01 | 1.01 | 0.985 | 1.02 | 0.905 | 0.998 | 1.04 | 0.82 | 0.358 | 0.231 |
| PC-14 | 1 | 1.07 | 0.968 | 0.427 | 0.104 | 0.943 | 1.02 | 0.787 | 0.796 | 0.313 | 0.957 | 0.939 | 0.942 | 0.871 | 0.188 | 0.0669 |
| RERF-LC-KJ | 0.979 | 0.964 | 0.932 | 0.555 | 0.279 | 0.98 | 1.03 | 0.989 | 0.924 | 0.715 | 0.995 | 0.949 | 1.02 | 1.11 | 0.366 | 0.239 |
| SK-LU-1 | 1.05 | 1.09 | 0.962 | 0.455 | 0.143 | 1.03 | 1.04 | 0.797 | 0.808 | 0.616 | 1.02 | 0.969 | 0.778 | 1.22 | 0.212 | 0.162 |
| SK-MES-1 | 0.998 | 1.09 | 0.941 | 0.475 | 0.162 | 0.961 | 1 | 0.947 | 0.721 | 0.414 | 0.98 | 0.959 | 1.05 |  | 0.319 | 0.185 |
| SW 900 | 0.665 | 0.844 | 0.856 | 0.459 | 0.262 | 0.887 | 0.871 | 0.748 | 0.703 | 0.365 | 0.84 | 0.932 | 0.207 |  | 0.154 | 0.17 |
| SW 1573 | 0.935 | 0.952 | 0.826 | 0.299 | 0.0971 | 1.07 | 0.957 | 0.966 | 0.709 | 0.257 | 0.963 | 0.981 | 0.947 | 1.02 | 0.11 | 0.0607 |
| UMC-11 | 0.928 | 0.904 | 0.693 | 0.187 | 0.141 | 1.02 | 0.962 | 0.843 | 0.921 | 0.554 | 0.896 | 0.927 | 0.946 | 0.757 | 0.668 | 0.185 |
